Experimental data reported in US20250145608A1, “KRAS DEGRADING COMPOUNDS COMPRISING ANNULATED 2-AMINO-3-CYANO THIOPHENES” (Boehringer Ingelheim Int'l GmbH Corp., priority 2021, published 2025).
Like-named read-outs stand apart in the source and are kept apart here.

What was measured:
Format in all cases: cell-based
[1] = target: T1, KRAS(G12D) (Homo sapiens, UniProt P01116, G12D); assay: HiBit degradation assay in GP5d-HiBit-KRAS(G12D) cells (18 h; DC50, Dmax)
T1 construct: introduced immediately downstream of the initiating Methionine codon of the endogenous KRAS locus; host or cells: GP5d-HiBit-KRAS(G12D), a CRISPR knock-in at the endogenous locus
Experimental: A HiBit protein detection tag (amino acid sequence […], Seq ID No 1) was introduced immediately downstream of the initiating Methionine codon of the endogenous KRAS locus (Ensembl gene ID ENSG00000133703.7) of GP5d cells (ECACC Cat. No. 95090715) by CRISPR-based genome engineering using a KRAS(G12D) mutant donor construct encoding the HiBit tag. […] Correct modification of the KRAS locus was assessed by PCR-based genotyping and Sanger sequencing of the isolated PCR products. The resulting cell line is referred to as GP5d-HiBit-KRAS(G12D).
To assess PROTAC-mediated degradation of KRAS(G12D), GP5d-HiBit-KRAS(G12D) cells were seeded at 25000 cells per well in 100 μL Dulbecco's Modified Eagle medium (Sigma cat. no. D6429) supplemented with 10% fetal calf serum into white bottom opaque 96 well plates (Perkin Elmer cat no. 5680). Plates were incubated at 37° C., 5% CO2 in a humidified incubator over night to allow the cells to adhere. […] Plates were further incubated at 37° C. for 18 hours. Following incubation, 100 μL per well Promega Nano-Glo HiBit lytic detection reagent mix (Promega Nano-Glo HiBit Lytic Detection System #N3050), prepared according to the manufacturer's instructions in the kit, were added. To allow for adequate cell lysis, plates were incubated on an orbital shaker for 15 min and further incubated 30 min at room temperature. Upon completion of cell lysis, luminescence was measured using an Envision plate reader using the Ultrasensitive Luminescence Protocol for 96 well plates. Luminescence levels were normalized by the values obtained with DMSO-treated samples and plotted as percent of DMSO control. DC50 values were computed using a four parametric logistic model. Dmax values represent the maximal extent of degradation observed and is stated as percent of control (% Ctrl.) treatments. DC50 and Dmax are reported in Table 64 for representative compounds of the invention.

[2] = test system: NCI-H358 cells; assay: NCI-H358 CTG proliferation assay (120 h) (NSCLC, G12C); details: Homo sapiens
Experimental: NCI-H358 CTG Proliferation Assay (120 h) (NSCLC, G12C)
NCI-H358 cells (ATCC No. CRL-5807) are dispensed into white bottom opaque 96 well plates (Perkin Elmer cat no. 5680) at a density of 2000 cells per well in 100 μL RPMI-1640 ATCC-Formulation (Gibco #A10491)+10% FCS (fetal calf serum) (assay 1) or into black 384-well plates, flat and clear bottom (Greiner, PNr. 781091) at a density of 200 cells per well in 60 μl RPMI-1640 ATCC-Formulation (Gibco #A10491)+10% FCS (fetal calf serum) (assay 2). […] Compounds (10 mM stock in DMSO) are added at logarithmic dose series using the HP Digital Dispenser D300 (Tecan) (assay 1) or the ECHO acoustic liquid handler system (Beckman Coulter) (assay 2), normalizing for added DMSO and including DMSO controls. For the TO time point measurement, untreated cells are analyzed at the time of compound addition. Plates are incubated for 120 h, and cell viability is measured using CellTiter-Glo luminescent cell viability reagent (Promega product code G7570). Viability (stated as percent of control) is defined as relative luminescence units RLU of each well divided by the RLU of cells in DMSO controls. IC50 values are determined from viability measurements by non-linear regression using a four parameter model.

[3] = test system: AsPC-1 cells; assay: AsPC-1 CTG proliferation assay (120 h) (pancreatic cancer, G12D); details: Homo sapiens, ASPC1, AsPC-1 proliferation
Experimental: AsPC-1 CTG Proliferation Assay (120 h) (Pancreatic Cancer, G12D)
The CTG assay is designed to measure quantitatively the proliferation of AsPC-1 cells (ATCC […]), using the CellTiter Glow Assay Kit (Promega G7571). Cells are grown in RPMI medium (ATCC) supplemented with Fetal Calf Serum (Life Technologies, Gibco BRL, Cat. No. 10270-106). On “day 0” 2000 AsPC-1 cells are seeded in 60 μL RPMI ATCC+10% FCS+ Penstrep in a 384-well plate, flat and clear bottom (Greiner, PNr. 781091). Cells are then incubated in the plates at 37° C. in a CO2 incubator overnight. On day 1, compounds (10 mM stock in DMSO) are added with the ECHO acoustic liquid handler system (Beckman Coulter), including DMSO controls. Plates are incubated for 120 h, and cell viability is measured using CellTiter-Glo luminescent cell viability reagent (Promega product code G7570). Viability (stated as percent of control) is defined as relative luminescence units RLU of each well divided by the RLU of cells in DMSO controls. IC50 values are determined from viability measurements by non-linear regression using a four-parameter model.

[4] = test system: SAS cells; assay: SAS CTG proliferation assay (120 h) (HNSCC, wt amplified)
Experimental: SAS CTG Proliferation Assay (120 h) (HNSCC, Wt Amplified)
(§1) SAS cells (JCRB0260) are dispensed into 384-well plates, flat and clear bottom (Greiner, PNr. 781091) at a density of 300 cells per well in 60 μL DMEM:F12 (Gibco 31330-038)+10% Fetal Calf Serum (HyClone, PNr.: SH30084.03) and incubated at 37° C. in a CO2 incubator overnight. The next day, compounds (10 mM stock in DMSO) are added with the ECHO acoustic liquid handler system (Beckman Coulter), including DMSO controls. Plates are incubated for 120 h, and cell viability is measured using CellTiter-Glo luminescent cell viability reagent (Promega product code G7570). Viability (stated as percent of control) is defined as relative luminescence units RLU of each well divided by the RLU of cells in DMSO controls. IC50 values are determined from viability measurements by non-linear regression using a four-parameter model.

[5] = test system: SK—CO-1 cells; assay: SK-CO-1 CTG proliferation assay (120 h) (CRC, G12V); details: Homo sapiens, SK-CO-1 proliferation
Experimental: SK—CO-1 CTG Proliferation Assay (120 h) (CRC, G12V)
as §1, with “SK—CO-1 cells (ATCC” for “SAS cells (JCRB0260)”, “SK—CO-1 cells (ATCC HTB-39) are dispensed” for “SAS cells (JCRB0260) are dispensed”, “density of 500 cells per” for “density of 300 cells per”, “60 μL EMEM (Sigma M5650)+10% Fetal Calf” for “60 μL DMEM:F12 (Gibco 31330-038)+10% Fetal Calf”

[6] = test system: GP5d cells; assay: GP5d cell proliferation assay (colorectal cancer, G12D), 5 days; details: Homo sapiens, 120 h
Experimental: GP5d Cell Proliferation Assay (Colorectal Cancer, G12D)
(§2) GP5d cells (ECACC 95090715) are dispensed into white bottom opaque 96 well plates at a density of 5000 cells per well in 100 μL DMEM (BioWhittaker, Cat #BE12-605F) supplemented with 10% FCS. […] Compounds (10 mM stock in DMSO) are added at logarithmic dose series using the HP Digital Dispenser D300 (Tecan), normalizing for added DMSO. For the TO time point measurement, untreated cells are analysed at the time of compound addition. Plates are incubated for 5 days, and cell viability is measured using CellTiter-Glo luminescent cell viability reagent (Promega, Cat. No G7570). Viability (stated as percent of control) is defined as relative luminescence units RLU of each well divided by the RLU of cells in DMSO controls. IC50 values were computed from relative viability values using a four parametric logistic model.

[7] = test system: SW620 cells; assay: SW620 cell proliferation assay (colorectal cancer, G12V), 5 days; details: Homo sapiens, SW-620, 120 h
Experimental: SW620 Cell Proliferation Assay (Colorectal Cancer, G12V)
as §2, with “SW620” for “GP5d”, “(ATCC CCL-227)” for “(ECACC 95090715)”, “plates (Perkin Elmer cat no. 5680)” for “plates”, “2000” for “5000”

[8] = assay 2, read-out: H358 (assay 2) IC50
[9] = assay 1, read-out: H358 (assay 1) IC50

T1 sequence (P01116 1-188 isoform P01116-2 G12D): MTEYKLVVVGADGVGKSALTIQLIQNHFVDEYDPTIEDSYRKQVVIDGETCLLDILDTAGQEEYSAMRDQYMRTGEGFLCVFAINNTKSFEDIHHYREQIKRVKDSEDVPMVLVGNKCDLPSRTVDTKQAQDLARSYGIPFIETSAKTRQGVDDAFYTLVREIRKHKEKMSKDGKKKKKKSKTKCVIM

DC50 [1] [nM] | Dmax 18 h [1] [% Ctrl] | IC50 [2, 8] [nM] | IC50 [3] [nM] | IC50 [5] [nM] | IC50 [2, 9] [nM] | IC50 [6] [nM] | IC50 [7] [nM] | SMILES | IC50 [4] [nM]
8.9 | 92 | 253 | 645 | 1210 |  |  |  | Cc1ncsc1-c1ccc(CNC(=O)[C@@H]2C[C@@H](O)CN2C(=O)C(c2cc(OCCCCN3CCCN(c4nccc(-c5cc([C@@]6(C)CCCc7sc(N)c(C#N)c76)no5)n4)[C@@H](C)C3)no2)C(C)C)cc1 (stereo partly shown) [I-6] | 17000
35.1 | 57 | 349 |  |  | 712 | ≥ 9000 | 9000 | Cc1ncsc1-c1ccc(CNC(=O)[C@@H]2C[C@@H](O)CN2C(=O)C(c2cc(OCCCCN3CCN(c4nccc(-c5noc([C@@]6(C)CCCc7sc(N)c(C#N)c76)n5)n4)[C@@H](C)C3)no2)C(C)C)cc1 (stereo partly shown) [I-11] | 
42.1 | 86 | 118 |  |  | 407 | 106 | 109 | Cc1ncsc1-c1ccc(CNC(=O)[C@@H]2C[C@@H](O)CN2C(=O)C(c2cc(OCCCCN3CCCN(c4nccc(-c5cc([C@@]6(C)CCCc7sc(N)c(C#N)c76)sn5)n4)[C@@H](C)C3)no2)C(C)C)cc1 (stereo partly shown) [I-12] | 
45.2 | 87 | 336 |  |  | 468 | 131 | 206 | Cc1cc(CNC(=O)[C@@H]2C[C@@H](O)CN2C(=O)C(c2cc(OCCCCN3CCCN(c4nccc(-c5noc([C@@]6(C)CCCc7sc(N)c(C#N)c76)n5)n4)[C@@H](C)C3)no2)C(C)C)c(F)cc1-c1scnc1C (stereo partly shown) [I-13] | 
6.7 | 93 |  |  |  | 346 | 23.5 | 29 | CC(C)C(C(=O)N1C[C@H](O)C[C@H]1C(=O)NCc1ccc(-n2ccnc2)cc1)c1cc(OCCCCN2CCCN(c3nccc(-c4noc([C@@]5(C)CCCc6sc(N)c(C#N)c65)n4)n3)[C@@H](C)C2)no1 (stereo partly shown) [I-19] | 
8.6 | 89 | 377 |  |  | 439 | 92.4 | 83.9 | CC(C)C(C(=O)N1C[C@H](O)C[C@H]1C(=O)NCc1ccc(Cl)cc1)c1cc(OCCCCN2CCCN(c3nccc(-c4noc([C@@]5(C)CCCc6sc(N)c(C#N)c65)n4)n3)[C@@H](C)C2)no1 (stereo partly shown) [I-20] | 
76.7 | 82 | 527 |  |  | 1150 | 857 | 267 | CC(C)c1ccc(CNC(=O)[C@@H]2C[C@@H](O)CN2C(=O)C(c2cc(OCCCCN3CCCN(c4nccc(-c5noc([C@@]6(C)CCCc7sc(N)c(C#N)c76)n5)n4)[C@@H](C)C3)no2)C(C)C)cc1 (stereo partly shown) [I-23] | 
10.6 | 91 | 43.8 |  |  | 160 | 21.7 | 51.3 | Cc1ncsc1-c1ccc(CNC(=O)[C@@H]2C[C@@H](O)CN2C(=O)C(C(C)C)n2cc(CCCCCN3CCCN(c4nccc(-c5noc([C@@]6(C)CCCc7sc(N)c(C#N)c76)n5)n4)[C@@H](C)C3)nn2)cc1 (stereo partly shown) [I-34] | 
523 | 85 |  |  |  | 3550 | 2630 | 803 | Cc1ncsc1-c1ccc(CNC(=O)[C@@H]2C[C@@H](O)CN2C(=O)[C@@H](NC(=O)COCCCN2CCCN(c3nccc(-c4noc([C@@]5(C)CCCc6sc(N)c(C#N)c65)n4)n3)[C@@H](C)C2)C(C)(C)C)cc1 [I-48] | 
